Experimental data taken from patent US20210267978A1, “NANOPARTICLE FORMULATIONS OF IKE AND METHODS OF USE THEREOF” (The Trustees of Columbia University in the City of New York, priority 2018, published 2021).
Like-named read-outs stand apart in the source and are kept apart here.

Legend:
[1] = tested on: SUDHL6 cells; assay: Immunofluorescence of MDA (mAb 1F83) on cells; assay type: cell-based; conditions: 10 μM IKE for 6 hours vs DMSO
Description: SUDHL-6 cells were treated with IKE. The cells were harvested by centrifugation and washed with PBS once. The cells were resuspended in PBS, fixed by adding equal volume of 4% paraformaldehyde (PFA), and incubated at room temperature for 15 min. The cells were washed with PBS/0.1% Tween 20 (PBST) twice, resuspended in 10% goat serum (ThermoFisher 50197Z) for 1 h. The cells were incubated with mouse mAb 1F83, which specifically recognizes malondialdehyde (MDA)-lysine adduct 4-methyl-1,4-dihydropyridine-3,5-dicarbaldehyde (MDHDC) (Yamada et al. 2001, Hyvarinen et al. 2014) (1:100 dilution) overnight at 4° C. The cells were washed with PBS three times by centrifugation. The cells were incubated with goat anti-mouse IgG H&L (Alexa Fluor 647) (Abcam ab150115) (1:1000) at room temperature for 1 h. The cells were washed with PBST twice by centrifugation, then resuspended in PBS in 24-well plate with poly-lysine-(Sigma Aldrich P4832)-coated cover slips and centrifuged at 1,000×g for 10 min. […] When applicable, line-scan analysis was performed on representative confocal microscopy images using Zeiss LSM software to qualitatively visualize fluorescence overlap. The intensity above threshold of the fluorescent signal of the bound antibodies was analyzed using NIH ImageJ software. Data were expressed as fold change compared with the vehicle.

[2] = Pharmacokinetic analysis in mice with three administration routes (plasma, LC-MS); assay type: in vivo; conditions: NOD/SCID mice; for AUC(0-t) / Cmax / Tmax / half-life / concentration at 8 h: mouse; for concentration at 8 h: read-out: Clast
Description: NOD/SCID mice 12-weeks of age and ˜28 g weight were weighed before injection and divided into groups of 3 mice per cage. IKE was dissolved in 5% DMSO/95% Hank's Balanced Salt Solution (HBSS) (Thermo Fisher Scientific, 14025076), pH 4, to create a 5 mg/mL solution. 5% DMSO/95% HBSS at pH 4 solution (Vehicle 1) without IKE was used as vehicle. The solution was sterilized using a 0.22 μm Steriflip filter unit (Thomas Scientific 1189Q46). Mice were dosed using three different routes, IP and PO with 50 mg/kg IKE, and IV with 17 mg/kg IKE. Samples were collected at 0, 1, 3, 4, and 8 h from three mice per time point. Additionally, three mice per group were used as control by administration with equivalent amount of vehicle 1 by IP, PO, and IV, and samples were collected at 8 h. At the appropriate time, mice were sacrificed by CO2 asphyxiation for 3 min and ˜0.5 mL of blood was collected via cardiac puncture. Blood was immediately put into K3 EDTA micro tube (SARSTEDT 41.1504.105) and placed on ice. Samples were centrifuged for 10 min at 2,100×g at 4° C., plasma was then transferred to a clean tube. Plasma samples were flash frozen in liquid nitrogen and stored at −80° C. IKE was extracted from plasma by adding 900 μL acetonitrile to 100 μL plasma. Samples were mixed for at least 5 min by rotating at room temperature and were sonicated prior to […] for 10 min at 4,000×g and 4° C. The supernatant was removed and dried on a GeneVac evaporator overnight on an HPLC setting. After drying, the samples were resuspended in 100 μL of methanol and analyzed on the liquid chromatography mass spectrometry (LC-MS), with each sample analyzed twice. Quality control standard samples were prepared by dissolving IKE in 100 μL water and extraction with the same procedures to ensure that the extraction was efficient. LC-MS analysis was performed on a platform comprising a Thermo Scientific Dionex Ultimate 3000RS controlled by Chromeleon (Dionex) and a Bruker amazon SL ESI ion-trap mass spectrometer.
Chromatographic separation was performed at 20° C. on Agient Eclipse Plus C18 column (2.1×50 mm, 3.5 μm) at 20° C. over a 12 minute gradient elution. Mobile phase A consisted of water with 0.1% acetic acid v/v and mobile phase B was methanol with 0.1% acetic acid v/v. After injection, the gradient was held at 80% mobile phase A for 1 min. The gradient was then ramped in a linear fashion to 80% mobile phase over 0.5 min. Over the next 3.5 min, the gradient was ramped in linear fashion to 100% mobile phase B and held at 100% mobile phase B for 3.25 min. The gradient was then ramped in a linear fashion to 80% mobile phase over 0.5 min and held there for the duration of the run. The flow rate was set to 400 μL/min and injection volumes were 5 μL. The retention time for IKE in this gradient was 2.8 min.
Mass spectrometry analysis was performed on a Bruker Amazon SL (Billerca, MA) in positive ESI mode. Trap Control was used to control the ESI settings with the inlet capillary held at −4500 V and the end plate offset at −500 V. Nitrogen was used as the desolvation gas. Hystar v 3.2 was used to integrate the UHPLC and MS applications, and data analysis was performed with the Compass DataAnalysis software. The base peak chromatogram at m/z 655.2 with a width of ±0.1 was integrated and peak area quantified by standard curve.
Pharmacokinetics (PK) of IKE was assessed using Prism fitted with lognormal of one phase exponential decay.

Tlast ([2]; IP, 50 mg/kg IKE): 8 h | Tlast ([2]; IV, 17 mg/kg IKE): 8 h | Tlast ([2]; PO, 50 mg/kg IKE): 8 h | AUC(0-t) ([2]; IP, 50 mg/kg IKE): 53900 ng·h/mL | Cmax ([2]; IP, 50 mg/kg IKE): 19500 ng/mL | Tmax ([2]; IP, 50 mg/kg IKE): 18.6 min | half-life ([2]; IP, 50 mg/kg IKE): 109 min | concentration at 8 h ([2]; IP, 50 mg/kg IKE): 1530 ng/mL | AUC(0-t) ([2]; IV, 17 mg/kg IKE): 17000 ng·h/mL | Cmax ([2]; IV, 17 mg/kg IKE): 11400 ng/mL | Tmax ([2]; IV, 17 mg/kg IKE): 0 min | half-life ([2]; IV, 17 mg/kg IKE): 78.6 min | concentration at 8 h ([2]; IV, 17 mg/kg IKE): 16 ng/mL | AUC(0-t) ([2]; PO, 50 mg/kg IKE): 5720 ng·h/mL | Cmax ([2]; PO, 50 mg/kg IKE): 5200 ng/mL | Tmax ([2]; PO, 50 mg/kg IKE): 43.2 min | half-life ([2]; PO, 50 mg/kg IKE): 57.6 min | concentration at 8 h ([2]; PO, 50 mg/kg IKE): 48 ng/mL
SMILES: CC(C)Oc1ccc(C(=O)Cn2ccnc2)cc1-n1c(CN2CCN(C(=O)COc3ccc(Cl)cc3)CC2)nc2ccccc2c1=O [IKE, Imidazole ketone erastin]
MDA immunofluorescence intensity increase [1]: 3.4 fold
